In ChEMBL document CHEMBL1133958, “Derivatives of (2R,3R,4S)-2-aminomethylpyrrolidine-3,4-diol are selective alpha-mannosidase inhibitors” (Bioorg Med Chem Lett, 2001):
Active and inactive are the calls of the source. The calls are words filed in the database; no cut-off is given here.

Legend:
[1] = target: Beta-galactosidase (Escherichia coli K-12) (UniProt P00722); experiment: Percentage inhibition of Beta-galactosidase from Escherichia coli at 1 mM concentration; No inhibition
[2] = Inhibitory activity towards Alpha-glucosidase from Baker yeast (isomaltase); design: species or system Saccharomyces cerevisiae
Beta-glucosidase A [3] = target: T1, Beta-glucosidase A (Caldicellulosiruptor saccharolyticus, UniProt P10482); experiment: Inhibitory activity towards Beta-Glucosidase from Caldocellum saccharol.
[4] = Inhibitory activity towards Alpha-glucosidase from Yeast (maltase); design: species or system Saccharomyces cerevisiae
[5] = target: T2, Alpha-glucosidase (Oryza sativa Japonica Group) (UniProt Q9LGC6); experiment: Percentage inhibition of Alpha-glucosidase from Rice (maltase) at 1 mM; […]
T2 sequence (whole entry): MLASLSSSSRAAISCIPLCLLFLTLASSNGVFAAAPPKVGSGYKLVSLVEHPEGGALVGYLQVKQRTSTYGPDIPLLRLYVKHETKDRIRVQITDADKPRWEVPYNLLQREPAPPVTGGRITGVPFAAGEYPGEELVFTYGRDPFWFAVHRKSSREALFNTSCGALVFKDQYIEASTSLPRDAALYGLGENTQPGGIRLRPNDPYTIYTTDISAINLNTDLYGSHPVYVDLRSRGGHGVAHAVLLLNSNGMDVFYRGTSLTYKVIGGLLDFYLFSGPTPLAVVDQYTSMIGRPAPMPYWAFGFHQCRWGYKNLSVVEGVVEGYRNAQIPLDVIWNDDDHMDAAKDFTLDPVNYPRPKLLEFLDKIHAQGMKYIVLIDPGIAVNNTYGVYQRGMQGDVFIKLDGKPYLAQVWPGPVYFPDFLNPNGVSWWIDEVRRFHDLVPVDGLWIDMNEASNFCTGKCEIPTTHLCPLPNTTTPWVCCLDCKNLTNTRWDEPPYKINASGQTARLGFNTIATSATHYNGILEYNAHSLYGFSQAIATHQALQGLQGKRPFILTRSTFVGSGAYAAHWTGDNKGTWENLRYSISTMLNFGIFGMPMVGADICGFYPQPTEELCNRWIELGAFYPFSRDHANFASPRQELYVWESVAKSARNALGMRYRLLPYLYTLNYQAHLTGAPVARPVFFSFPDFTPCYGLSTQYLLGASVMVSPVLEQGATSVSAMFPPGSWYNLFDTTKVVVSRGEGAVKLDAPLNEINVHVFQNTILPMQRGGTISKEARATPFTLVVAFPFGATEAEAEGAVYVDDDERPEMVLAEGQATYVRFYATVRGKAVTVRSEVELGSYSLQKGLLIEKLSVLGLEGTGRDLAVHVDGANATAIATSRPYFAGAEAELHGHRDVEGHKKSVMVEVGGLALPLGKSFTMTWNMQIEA

[6] = target: T3, Beta-galactosidase (Bos taurus) (UniProt Q58D55); experiment: Percentage inhibition of Beta-galactosidase from Bovine liver at 1 mM concentration; No inhibition
T3 sequence (whole entry): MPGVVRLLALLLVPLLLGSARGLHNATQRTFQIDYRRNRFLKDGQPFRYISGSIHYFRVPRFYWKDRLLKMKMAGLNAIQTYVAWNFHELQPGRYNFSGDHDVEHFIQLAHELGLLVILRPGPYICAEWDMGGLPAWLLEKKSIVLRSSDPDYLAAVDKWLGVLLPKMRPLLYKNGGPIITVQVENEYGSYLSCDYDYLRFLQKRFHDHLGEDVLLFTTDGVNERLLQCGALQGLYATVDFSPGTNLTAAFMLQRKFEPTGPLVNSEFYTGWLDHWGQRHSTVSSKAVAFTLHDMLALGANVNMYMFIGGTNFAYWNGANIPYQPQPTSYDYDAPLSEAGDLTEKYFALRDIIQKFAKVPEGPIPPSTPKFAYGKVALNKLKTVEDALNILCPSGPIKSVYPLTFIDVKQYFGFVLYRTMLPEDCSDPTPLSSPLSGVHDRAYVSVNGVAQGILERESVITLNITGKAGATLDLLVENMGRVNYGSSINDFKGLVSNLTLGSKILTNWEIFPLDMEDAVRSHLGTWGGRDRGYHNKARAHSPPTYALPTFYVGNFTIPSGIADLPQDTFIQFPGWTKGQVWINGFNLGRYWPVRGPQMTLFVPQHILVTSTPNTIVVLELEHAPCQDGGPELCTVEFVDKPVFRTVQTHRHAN

Saccharomyces cerevisiae [7] = experiment: Percentage inhibition of Alpha-glucosidase from Baker yeast (isomaltase) at 1 mM
[8] = target: Beta-glucosidase A (Caldicellulosiruptor saccharolyticus) (UniProt P10482); experiment: Percentage inhibition of Beta-Glucosidase from Caldocellum saccharol. at 1 mM
[9] = target: T4, Beta-galactosidase (Aspergillus niger) (UniProt P29853); experiment: Percentage inhibition of Beta-galactosidase from Aspergillus niger at 1 mM concentration
T4 sequence (whole entry): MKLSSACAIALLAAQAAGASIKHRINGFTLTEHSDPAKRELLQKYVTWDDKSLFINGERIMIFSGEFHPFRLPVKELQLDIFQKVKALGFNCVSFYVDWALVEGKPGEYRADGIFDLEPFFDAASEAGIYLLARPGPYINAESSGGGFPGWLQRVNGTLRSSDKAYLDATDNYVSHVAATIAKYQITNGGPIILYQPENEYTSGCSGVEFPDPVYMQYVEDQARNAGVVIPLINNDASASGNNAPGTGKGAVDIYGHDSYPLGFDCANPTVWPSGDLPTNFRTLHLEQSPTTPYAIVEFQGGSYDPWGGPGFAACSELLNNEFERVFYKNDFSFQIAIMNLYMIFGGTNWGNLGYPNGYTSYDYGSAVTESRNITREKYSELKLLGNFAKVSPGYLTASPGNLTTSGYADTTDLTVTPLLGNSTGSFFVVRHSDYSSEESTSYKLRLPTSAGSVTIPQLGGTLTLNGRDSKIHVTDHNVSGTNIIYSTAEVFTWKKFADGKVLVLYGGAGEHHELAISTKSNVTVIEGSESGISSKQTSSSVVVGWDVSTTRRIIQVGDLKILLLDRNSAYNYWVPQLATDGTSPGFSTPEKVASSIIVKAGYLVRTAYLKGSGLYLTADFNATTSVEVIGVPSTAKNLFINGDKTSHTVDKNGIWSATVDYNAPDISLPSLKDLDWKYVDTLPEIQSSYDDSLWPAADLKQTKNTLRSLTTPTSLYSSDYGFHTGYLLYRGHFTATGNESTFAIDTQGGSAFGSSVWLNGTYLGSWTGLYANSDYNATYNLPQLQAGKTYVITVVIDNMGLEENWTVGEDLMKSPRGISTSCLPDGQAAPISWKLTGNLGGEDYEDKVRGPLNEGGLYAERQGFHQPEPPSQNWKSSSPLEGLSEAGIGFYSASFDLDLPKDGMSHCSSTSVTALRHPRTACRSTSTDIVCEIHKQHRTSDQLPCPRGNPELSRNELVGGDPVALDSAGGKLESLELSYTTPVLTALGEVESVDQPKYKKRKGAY

Beta-glucosidase A [10] = target: T1, Beta-glucosidase A; experiment: Inhibitory activity towards Beta-Glucosidase from Caldocellum saccharol
[11] = system: Alpha-mannosidase (Prunus dulcis); experiment: Percentage inhibition of Alpha-mannosidase from Almond at 1 mM
Saccharomyces cerevisiae [12] = experiment: Percentage inhibition of Alpha-glucosidase from Yeast (maltase) at 1 mM
[13] = target: T5, Glucoamylase 1 (Rhizopus oryzae) (UniProt P07683); experiment: Percentage inhibition of Alpha-glucosidase from Rhizopus mold (amyloglucosidase) at 1 mM concentration; No inhibition; conditions: Rhizopus arrhizus
T5 sequence (whole entry): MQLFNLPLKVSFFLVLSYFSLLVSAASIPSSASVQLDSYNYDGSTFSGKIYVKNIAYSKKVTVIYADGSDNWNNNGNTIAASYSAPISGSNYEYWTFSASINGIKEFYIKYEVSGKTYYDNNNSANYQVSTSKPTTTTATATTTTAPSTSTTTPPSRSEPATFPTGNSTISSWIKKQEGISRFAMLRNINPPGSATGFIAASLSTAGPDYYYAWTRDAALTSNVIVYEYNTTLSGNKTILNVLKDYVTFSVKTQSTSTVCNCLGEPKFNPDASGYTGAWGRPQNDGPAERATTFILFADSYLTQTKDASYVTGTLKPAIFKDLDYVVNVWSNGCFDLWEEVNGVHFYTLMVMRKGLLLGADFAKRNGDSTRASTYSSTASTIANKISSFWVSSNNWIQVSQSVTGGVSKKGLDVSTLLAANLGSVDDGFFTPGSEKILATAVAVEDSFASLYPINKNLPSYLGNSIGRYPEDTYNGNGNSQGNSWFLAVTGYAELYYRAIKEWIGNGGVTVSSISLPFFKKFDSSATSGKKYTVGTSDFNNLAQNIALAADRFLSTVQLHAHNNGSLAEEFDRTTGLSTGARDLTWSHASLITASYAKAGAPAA

[14] = Percentage inhibition of Beta-galactosidase from Aspergillus oryzae at 1 mM; No inhibition
[15] = target: Glucoamylase (Aspergillus niger) (UniProt P69328); experiment: Percentage inhibition of Alpha-glucosidase from Aspergillus niger (amyloglucosidase) at 1 mM; No inhibition
Saccharomyces cerevisiae [16] = experiment: Percentage inhibition of Alpha-glucosidase from Yeast (maltase) at 1 mM; […]
[17] = Percentage inhibition of Beta-galactosidase from Aspergillus oryzae at 1 mM
[18] = target: Beta-galactosidase (Escherichia coli K-12) (UniProt P00722); experiment: Percentage inhibition of Beta-galactosidase from Escherichia coli at 1 mM concentration
[19] = target: Glucoamylase (Aspergillus niger) (UniProt P69328); experiment: Percentage inhibition of Alpha-glucosidase from Aspergillus niger (amyloglucosidase) at 1 mM
Beta-galactosidase [20] = target: T6, Beta-galactosidase (Aspergillus niger, UniProt P29853); experiment: Inhibitory activity towards Beta-galactosidase from Aspergillus niger
T6 sequence (P29853 whole entry): T4 sequence (whole entry)

[21] = Inhibitory activity towards Beta-galactosidase from Aspergillus oryzae
[22] = target: T5, Glucoamylase 1 (Rhizopus oryzae); experiment: Percentage inhibition of Alpha-glucosidase from Rhizopus mold (amyloglucosidase) at 1 mM concentration; conditions: Rhizopus arrhizus
[23] = target: T3, Beta-galactosidase (Bos taurus); experiment: Percentage inhibition of Beta-galactosidase from Bovine liver at 1 mM concentration
[24] = target: Beta-glucosidase A (Caldicellulosiruptor saccharolyticus) (UniProt P10482); experiment: Percentage inhibition of Beta-Glucosidase from Caldocellum saccharol. at 1 mM; No inhibition
[25] = Percentage inhibition of Beta-galactosidase from Jack bean at 1 mM concentration; conditions: Canavalia ensiformis
[26] = target: T2, Alpha-glucosidase (Oryza sativa Japonica Group); experiment: Percentage inhibition of Alpha-glucosidase from Rice (maltase) at 1 mM
[27] = target: T3, Beta-galactosidase (Bos taurus); experiment: Percentage inhibition of Beta-galactosidase from Bovine liver at 1 mM; No inhibition
Beta-galactosidase [28] = target: T7, Beta-galactosidase (Bos taurus, UniProt Q58D55); experiment: Inhibitory activity towards Beta-galactosidase from Bovine liver
T7 sequence (Q58D55 whole entry): T3 sequence (whole entry)

T1 sequence (P10482 whole entry): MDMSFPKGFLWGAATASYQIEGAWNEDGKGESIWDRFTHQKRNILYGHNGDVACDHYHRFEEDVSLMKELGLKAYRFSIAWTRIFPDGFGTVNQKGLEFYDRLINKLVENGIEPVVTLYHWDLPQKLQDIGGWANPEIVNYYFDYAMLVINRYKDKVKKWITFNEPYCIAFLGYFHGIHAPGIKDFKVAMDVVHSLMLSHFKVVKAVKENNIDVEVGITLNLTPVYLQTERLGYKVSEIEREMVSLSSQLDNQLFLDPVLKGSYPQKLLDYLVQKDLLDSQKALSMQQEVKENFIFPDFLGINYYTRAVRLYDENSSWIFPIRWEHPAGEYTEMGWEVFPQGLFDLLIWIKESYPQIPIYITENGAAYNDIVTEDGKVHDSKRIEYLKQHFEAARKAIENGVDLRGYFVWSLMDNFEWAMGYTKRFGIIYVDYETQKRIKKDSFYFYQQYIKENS
Beta-glucosidase A (Caldicellulosiruptor saccharolyticus), sequence (P10482 whole entry): as above
Beta-galactosidase (Escherichia coli K-12), sequence (P00722 whole entry): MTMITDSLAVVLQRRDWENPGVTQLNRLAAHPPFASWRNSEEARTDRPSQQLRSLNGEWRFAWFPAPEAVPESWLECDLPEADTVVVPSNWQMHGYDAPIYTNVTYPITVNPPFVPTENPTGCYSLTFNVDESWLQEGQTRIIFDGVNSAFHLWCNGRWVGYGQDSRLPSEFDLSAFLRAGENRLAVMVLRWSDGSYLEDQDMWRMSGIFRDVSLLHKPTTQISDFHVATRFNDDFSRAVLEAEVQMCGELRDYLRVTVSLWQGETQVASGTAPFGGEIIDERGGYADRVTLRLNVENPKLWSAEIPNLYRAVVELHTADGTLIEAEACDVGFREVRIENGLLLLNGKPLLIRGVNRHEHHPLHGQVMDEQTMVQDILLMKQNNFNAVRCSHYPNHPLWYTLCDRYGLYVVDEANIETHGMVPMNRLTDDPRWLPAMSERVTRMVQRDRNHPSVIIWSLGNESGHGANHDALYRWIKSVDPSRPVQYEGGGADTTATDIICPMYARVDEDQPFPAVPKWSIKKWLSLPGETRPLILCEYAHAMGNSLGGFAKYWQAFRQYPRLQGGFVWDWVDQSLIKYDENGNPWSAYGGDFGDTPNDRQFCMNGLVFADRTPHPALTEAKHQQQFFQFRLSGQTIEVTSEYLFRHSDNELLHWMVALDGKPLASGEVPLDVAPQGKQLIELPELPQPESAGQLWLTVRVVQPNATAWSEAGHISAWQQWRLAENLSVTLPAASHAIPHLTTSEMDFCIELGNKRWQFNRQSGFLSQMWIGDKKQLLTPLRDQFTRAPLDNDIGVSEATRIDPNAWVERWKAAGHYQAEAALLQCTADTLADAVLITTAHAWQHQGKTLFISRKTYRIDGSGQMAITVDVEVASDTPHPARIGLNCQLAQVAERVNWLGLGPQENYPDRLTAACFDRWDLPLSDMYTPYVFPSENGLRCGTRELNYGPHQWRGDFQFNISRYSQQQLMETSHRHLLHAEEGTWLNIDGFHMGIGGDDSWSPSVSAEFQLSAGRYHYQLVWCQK
Glucoamylase (Aspergillus niger), sequence (P69328 whole entry): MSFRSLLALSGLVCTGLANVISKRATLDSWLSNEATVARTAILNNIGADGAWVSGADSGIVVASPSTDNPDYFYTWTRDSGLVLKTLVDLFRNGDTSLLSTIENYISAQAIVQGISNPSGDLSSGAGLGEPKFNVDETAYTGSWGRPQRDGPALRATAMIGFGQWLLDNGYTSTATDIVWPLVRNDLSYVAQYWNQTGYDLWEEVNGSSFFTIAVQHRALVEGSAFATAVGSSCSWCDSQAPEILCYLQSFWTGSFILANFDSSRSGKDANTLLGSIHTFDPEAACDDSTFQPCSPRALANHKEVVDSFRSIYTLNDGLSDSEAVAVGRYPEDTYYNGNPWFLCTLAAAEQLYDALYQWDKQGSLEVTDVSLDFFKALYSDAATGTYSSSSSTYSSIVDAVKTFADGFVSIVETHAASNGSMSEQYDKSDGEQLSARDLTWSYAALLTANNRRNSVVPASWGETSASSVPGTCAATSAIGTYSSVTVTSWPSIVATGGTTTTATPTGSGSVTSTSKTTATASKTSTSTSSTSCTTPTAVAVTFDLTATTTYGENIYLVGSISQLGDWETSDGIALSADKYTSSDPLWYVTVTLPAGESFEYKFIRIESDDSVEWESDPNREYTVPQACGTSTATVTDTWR

OC1CNC(CNCc2ccco2)C1O (configuration not stated)
inhibition [1]: inactive | IC50 [2]: 65 µM | Ki [2]: 45 µM | IC50 (Beta-glucosidase A [3]): 250 µM | IC50 [4]: 280 µM | inhibition [5]: inactive | inhibition [6]: inactive | inhibition (Saccharomyces cerevisiae [7]): 94% | inhibition [8]: 75% | inhibition [9]: 39% | Ki (Beta-glucosidase A [10]): 60 µM | inhibition [11]: 29% | inhibition (Saccharomyces cerevisiae [12]): 66% | inhibition [13]: inactive | inhibition [14]: inactive | inhibition [15]: inactive

OC(O)CC1NCC(O)C1O (configuration not stated)
inhibition (Saccharomyces cerevisiae [16]): inactive | inhibition [5]: inactive | inhibition [17]: 80% | inhibition (Saccharomyces cerevisiae [7]): 28% | inhibition [8]: 90% | inhibition [18]: 48% | inhibition [19]: 21% | inhibition [9]: 91% | IC50 (Beta-galactosidase [20]): 140 µM | Ki (Beta-galactosidase [20]): 200 µM | IC50 [21]: 75 µM | Ki [21]: 75 µM | inhibition [22]: 40% | inhibition [23]: 32%

OC1CNC(CNCn2ccnc2)C1O (configuration not stated)
IC50 [2]: 120 µM | Ki [2]: 40 µM | IC50 (Beta-glucosidase A [3]): 290 µM | IC50 [4]: 610 µM | inhibition [5]: inactive | inhibition [6]: inactive | inhibition [17]: 24% | inhibition (Saccharomyces cerevisiae [7]): 90% | inhibition [8]: 76% | inhibition [18]: 49% | inhibition [9]: 41% | Ki (Beta-glucosidase A [10]): 120 µM | inhibition [11]: 59% | inhibition (Saccharomyces cerevisiae [12]): 55% | inhibition [13]: inactive | inhibition [15]: inactive

O[C@@H]1CNC[C@@H]1O
inhibition (Saccharomyces cerevisiae [16]): inactive | inhibition [5]: inactive | inhibition [17]: 53% | inhibition (Saccharomyces cerevisiae [7]): 32% | inhibition [18]: 41% | inhibition [19]: 24% | inhibition [9]: 39% | IC50 [21]: 790 µM | inhibition [22]: 47% | inhibition [24]: inactive | inhibition [23]: 25%

NCC1NCC(O)C1O (configuration not stated)
inhibition [17]: 60% | inhibition [8]: 93% | inhibition [18]: 92% | inhibition [9]: 24% | inhibition [25]: 76% | inhibition [26]: 98% | inhibition [11]: 51% | inhibition (Saccharomyces cerevisiae [12]): 84% | inhibition [13]: inactive | inhibition [27]: inactive | inhibition [15]: inactive

CC(NCC1NCC(O)C1O)C(O)(c1ccccc1)c1ccccc1 (configuration not stated)
IC50 (Beta-glucosidase A [3]): 320 µM | inhibition [5]: inactive | inhibition (Saccharomyces cerevisiae [7]): 46% | inhibition [8]: 72% | inhibition [18]: 25% | inhibition [9]: 29% | inhibition [11]: 48% | inhibition (Saccharomyces cerevisiae [12]): 28% | inhibition [13]: inactive | IC50 (Beta-galactosidase [28]): 140 µM | Ki (Beta-galactosidase [28]): 21 µM | inhibition [14]: inactive | inhibition [15]: inactive | inhibition [23]: 84%
